Laboratory results as given in US20260167622A1, “PAN-KRAS DEGRADING AGENT, AND PREPARATION METHOD THEREFOR AND USE THEREOF” (LEADINGTAC PHARMACEUTICAL (SHAOXING) CO., LTD., priority 2022, published 2026).

Assays:
Assay type in all cases: cell-based
[1] = molecular target: T1, KRAS G12V protein in SW620 cells (Homo sapiens, UniProt P01116, G12V); test: KRAS degradation assay (Western Blot) in SW620 cells; settings: for DC50: 24 h; for Dmax: SW-620, 24 h
T1 construct: endogenous in cells; host or cells: SW620
T1 sequence (P01116 1-188 isoform P01116-2 G12V): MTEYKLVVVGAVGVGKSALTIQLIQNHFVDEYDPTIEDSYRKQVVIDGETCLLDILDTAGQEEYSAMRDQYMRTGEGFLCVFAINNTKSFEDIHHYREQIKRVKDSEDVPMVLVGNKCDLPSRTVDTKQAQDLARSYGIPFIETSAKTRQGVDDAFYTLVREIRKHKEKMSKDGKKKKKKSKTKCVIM
How it was run: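 5×10^5 cells/well; cpd 0.03–3000 nM final, 0.25% DMSO, 24 h, 37 °C/5% CO2. RIPA lysis, 5 µg protein/lane, anti-KRAS WB, β-actin loading ref. DC50/Dmax by nonlinear fit.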

[2] = test system: KRAS G12V mutant human colorectal cancer cell SW620; test: 3D cell proliferation inhibition assay, SW620; settings: SW-620, 168 h, 3D culture, 7 days, CTG
How it was run: (§1)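 Cells were seeded in low-adsorption 96-well plates at 5×10^2 cells/well (MKN1 at 1×10^3) with compounds at final 10000-0.026 nM, 0.2% DMSO, and grown 7 days at 37° C. CTG luminescence gave inhibition relative to DMSO and medium-only controls, and IC50 came from a log-concentration curve fit.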

[3] = test system: KRAS G13D mutant human colorectal cancer epithelial cell DLD-1; test: 3D cell proliferation inhibition assay, DLD-1; settings: DLD-1, 168 h, 3D culture, 7 days, CTG
How it was run: as §1

[4] = molecular target: T2, KRAS G12C protein in NCI-H358 cells (Homo sapiens, UniProt P01116, G12C); test: KRAS degradation assay (Western Blot) in NCI-H358 cells; settings: 24 h
T2 construct: endogenous in cells; host or cells: NCI-H358
T2 sequence (P01116 1-188 isoform P01116-2 G12C): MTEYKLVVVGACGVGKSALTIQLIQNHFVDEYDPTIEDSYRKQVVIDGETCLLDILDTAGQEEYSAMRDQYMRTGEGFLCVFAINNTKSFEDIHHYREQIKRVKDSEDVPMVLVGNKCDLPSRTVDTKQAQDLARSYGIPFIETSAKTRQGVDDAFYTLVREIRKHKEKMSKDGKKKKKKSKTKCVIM
Excerpt: (§2) Test Example 5: KRAS G12C, KRAS G12D, KRAS G12V, KRAS G13D, and KRAS WT (Expanded) Degradation Assays
(§3) The degradation effect of the compounds on KRAS was investigated on KRAS G12C mutant human non-small cell lung cancer cell NCI-H358, KRAS G12D mutant human metastatic pancreatic cancer cell AsPc-1, KRAS G12D mutant human lung cancer cell A427, KRAS G12V mutant human colorectal cancer cell SW620, KRAS G12V mutant human lung cancer cell SW900, KRAS G13D mutant human colorectal cancer epithelial cell DLD-1, and KRAS WT human gastric cancer cell MKN-1. The specific procedures were as follows: 0.95 mL of cells were seeded into each well of a 24-well cell culture plate to achieve a cell density of 5×10^5 cells/well; and the cell plate was incubated in an incubator at 37° C. with 5% CO2 overnight. Then 50 μL of the compound solution after dilution was added to each of the wells with the corresponding cells, so that the final concentration of the compound was in a range of 0.03-3000 nM. The final concentration of DMSO was 0.25%. After the compounds were added, the cell plate was incubated in an incubator at 37° C. with 5% CO2 for 24 h. The culture medium in the 24-well cell culture plate was then removed, and the plate was washed twice with 1×PBS (KeyGEN). 120 μL of RIPA (strong) lysis buffer (Beyotime) (supplemented with 1 mM phenylmethylsulfonyl fluoride, a protease inhibitor mixture (Beyotime), and a protease phosphatase inhibitor mixture (Beyotime)) was added to lyse adherent SW900 cells at the bottom of the cell culture plate. After the plate was left to stand on ice for 30 min, the protein lysate in each well was transferred to a 1.5 mL centrifuge tube and centrifuged at 15000 g for 20 min at 4° C. The cell lysate supernatants after centrifugation were cryopreserved in a refrigerator at −80° C. for later use.
(§4) After the samples of the cell lysate supernatants that had been prepared were thawed from the refrigerator at −80° C., the total protein concentrations of the cell lysates were determined using a BCA protein quantification kit (Tiangen). The total protein concentrations of the samples were then adjusted to 0.5 μg/μL with PBS and 5×SDS-PAGE protein loading buffer (Beyotime), and the samples were incubated in a water bath at 100° C. for 15 min. The samples were then incubated in an ice bath for 5 min and centrifuged at 14000 g for 1 min at 4° C., and the supernatants were mixed well as loading samples for the Western Blot assay. The samples were loaded into wells of a 10% precast gel (KeyGEN) with a loading volume of 10 μL (total protein: 5 μg), a sufficient Tris-MOPS-SDS running buffer (Adamas) was added, and then electrophoresis was performed at a constant voltage of 120 V for 55 min. After the electrophoresis, the proteins on the gel were transferred to PVDF membranes at a constant current of 250 mA for 55 min. After the membrane transfer, the PVDF membranes were incubated in 1× Quick Block blocking buffer (Beyotime)at room temperature for 30 min. After the blocking, the PVDF membranes were separately incubated at 4° C. overnight with the KRAS antibody (Abcam) diluted in a ratio of 1:1000 and the β-actin antibody (Abcam) diluted in a ratio of 1:2000 in 5% BSA as the diluent, and then washed with 1×TBST buffer (2.4 g of Tris, 8.8 g of NaCl, 1.5 mL of Tween 20, with pH adjusted to 7.4, with the volume brought to 1 L) 3 times for 10 min/time. The membranes were incubated with a secondary antibody (Abcam) diluted in 5% BSA at room temperature for 2 h, and then washed with 1×TBST buffer 3 times for 10 min/time. Finally, the membranes were incubated with Clarity Western ECL Substrate (BIO-RAD) for 5 min for luminescence and color development, and a ChemiScope 6200 Touch chemiluminescence imaging system (Clinx) was used for color development and protein mapping. Gray value analysis of the protein maps was performed using the chemiluminescence analysis software (Clinx). […]

[5] = test system: KRAS WT human gastric cancer cell MKN1; test: 3D cell proliferation inhibition assay, MKN1; settings: MKN-1, 168 h, 3D culture, 7 days, CTG
How it was run: as §1

[6] = test system: KRAS G12C mutant human non-small cell lung cancer cell NCI-H358; test: 3D cell proliferation inhibition assay, NCI-H358; settings: NCI-H358, 168 h, 3D culture, 7 days, CTG
How it was run: as §1

[7] = molecular target: T3, KRAS G13D protein in DLD-1 cells (Homo sapiens, UniProt P01116, G13D); test: KRAS degradation assay (Western Blot) in DLD-1 cells; settings: 24 h
T3 construct: endogenous in cells; host or cells: DLD-1
T3 sequence (P01116 1-188 isoform P01116-2 G13D): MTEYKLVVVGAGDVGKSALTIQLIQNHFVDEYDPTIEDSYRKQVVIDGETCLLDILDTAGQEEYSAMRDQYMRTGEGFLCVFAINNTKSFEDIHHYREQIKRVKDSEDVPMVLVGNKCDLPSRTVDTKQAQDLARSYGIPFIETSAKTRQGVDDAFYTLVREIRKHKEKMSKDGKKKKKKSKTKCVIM
Excerpt: as §2, §3, §4

[8] = test system: KRAS G12D mutant human metastatic pancreatic cancer cell AsPc-1; test: 3D cell proliferation inhibition assay, AsPc-1; settings: ASPC1, 168 h, 3D culture, 7 days, CTG
How it was run: as §1

[9] = molecular target: T4, KRAS WT (expanded) protein in MKN1 cells (Homo sapiens, UniProt P01116); test: KRAS degradation assay (Western Blot) in MKN1 cells; settings: for DC50: 24 h; for Dmax: MKN-1, 24 h
T4 construct: endogenous in cells; host or cells: MKN1 (MKN-1)
T4 sequence (P01116 1-188 isoform P01116-2): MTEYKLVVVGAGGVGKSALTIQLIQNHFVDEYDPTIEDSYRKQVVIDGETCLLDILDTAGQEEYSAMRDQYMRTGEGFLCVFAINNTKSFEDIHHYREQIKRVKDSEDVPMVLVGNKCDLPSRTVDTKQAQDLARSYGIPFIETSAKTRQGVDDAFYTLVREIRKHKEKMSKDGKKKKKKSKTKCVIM
Excerpt: as §2, §3, §4

[10] = molecular target: T5, KRAS G12D protein in AsPc-1 cells (Homo sapiens, UniProt P01116, G12D); test: KRAS degradation assay (Western Blot) in AsPc-1 cells; settings: for DC50: 24 h; for Dmax: ASPC1, 24 h
T5 construct: endogenous in cells; host or cells: AsPc-1
T5 sequence (P01116 1-188 isoform P01116-2 G12D): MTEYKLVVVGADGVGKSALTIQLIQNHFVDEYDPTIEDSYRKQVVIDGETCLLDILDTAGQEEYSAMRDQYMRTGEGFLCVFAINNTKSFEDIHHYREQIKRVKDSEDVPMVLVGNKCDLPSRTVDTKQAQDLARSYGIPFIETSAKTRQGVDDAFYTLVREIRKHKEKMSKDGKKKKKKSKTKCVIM
Excerpt: as §2, §3, §4

SMILES | DC50 [1] [nM] | Dmax [1] [%] | IC50 [2] [nM] | IC50 [3] [nM] | DC50 [4] [nM] | Dmax [4] [%] | IC50 [5] [nM] | IC50 [6] [nM] | DC50 [7] [nM] | Dmax [7] [%] | IC50 [8] [nM] | DC50 [9] [nM] | Dmax [9] [%] | DC50 [10] [nM] | Dmax [10] [%]
C#Cc1c(F)ccc2cc(O)cc(-c3ncc4c(N5CCC[C@@](C)(O)C5)nc(OC[C@H](C)CN5CCN(CC6CCC7(CC6)CCN(C(=O)c6ccc(OC)c(N8CCC(=O)NC8=O)c6)CC7)CC5)nc4c3F)c12 [Example 46, 1-(5-(9-((4-((R)-3-((7-(8-ethynyl-7-fluoro-3-hydroxynaphthalen-1-yl)-8-fluoro-4-((R)-3-hydroxy-3-methylpiperidin-1-yl)pyrido[4,3-d]pyrimidin-2-yl)oxy)-2-methylpropyl)piperazin-1-yl)methyl)-3-azaspiro[5.5]undecane-3-carbonyl)-2-methoxyphenyl)dihydropyrimidine-2,4(1H,3H)-dione] | 0.87 | 100 | 2.81 | 5.49 | 3.14 | 86.7 | 2.01 | 18.2 | 2.36 | 100 | 9.03 | 1.26 | 100 | – | –
C#Cc1c(F)ccc2cc(O)cc(-c3ncc4c(N5CCC[C@@](C)(O)C5)nc(OC[C@H](C)CN5CCN(CC6CCC7(CC6)CCN(C(=O)c6ccc(Cl)c(N8CCC(=O)NC8=O)c6)CC7)CC5)nc4c3F)c12 [Example 48, 1-(2-chloro-5-(9-((4-((R)-3-((7-(8-ethynyl-7-fluoro-3-hydroxynaphthalen-1-yl)-8-fluoro-4-((R)-3-hydroxy-3-methylpiperidin-1-yl)pyrido[4,3-d]pyrimidin-2-yl)oxy)-2-methylpropyl)piperazin-1-yl)methyl)-3-azaspiro[5.5]undecane-3-carbonyl)phenyl)dihydropyrimidine-2,4(1H,3H)-dione] | 1.02 | 100 | 5.17 | 2.61 | 17.2 | 100 | 21.2 | 85.5 | 1.34 | 100 | 23.2 | 2.33 | 100 | – | –
C#Cc1c(F)ccc2cc(O)cc(-c3ncc4c(N(C)[C@H]5C[C@@H]5F)nc(OC[C@H](C)CN5CCN(CC6CCC7(CC6)CCN(C(=O)c6ccc(OC)c(N8CCC(=O)NC8=O)c6)CC7)CC5)nc4c3F)c12 [Example 50, 1-(5-(9-((4-((R)-3-((7-(8-ethynyl-7-fluoro-3-hydroxynaphthalen-1-yl)-8-fluoro-4-(((1S,2S)-2-fluorocyclopropyl)(methyl)amino)pyrido[4,3-d]pyrimidin-2-yl)oxy)-2-methylpropyl)piperazin-1-yl)methyl)-3-azaspiro[5.5]undecane-3-carbonyl)-2-methoxyphenyl)dihydropyrimidine-2,4(1H,3H)-dione] | 3.22 | 99.4 | 3.73 | 90.9 | 21.6 | 96.3 | 23.7 | 46.7 | 3.98 | 98 | 157 | – | – | 167 | 77.1
C#Cc1c(F)ccc2cc(O)cc(-c3ncc4c(N5CCC[C@@](C)(O)C5)nc(OCC5(CN6CCN(CC7CCC8(CC7)CCN(C(=O)c7ccc(CC)c(N9CCC(=O)NC9=O)c7)CC8)CC6)CC5)nc4c3F)c12 [Example 92, (R)-1-(2-ethyl-5-(9-((4-((1-(((7-(8-ethynyl-7-fluoro-3-hydroxynaphthalen-1-yl)-8-fluoro-4-(3-hydroxy-3-methylpiperidin-1-yl)pyrido[4,3-d]pyrimidin-2-yl)oxy)methyl)cyclopropyl)methyl)piperazin-1-yl)methyl)-3-azaspiro[5.5]undecane-3-carbonyl)phenyl)dihydropyrimidine-2,4(1H,3H)-dione] | 1.34 | 100 | 1.31 | 2.26 | – | – | 447 | 19.3 | – | – | 6.75 | 0.42 | 99 | – | –

Other lines, results leading:

DC50 [1] [nM] | Dmax [1] [%] | IC50 [2] [nM] | IC50 [3] [nM] | DC50 [4] [nM] | Dmax [4] [%] | IC50 [5] [nM] | IC50 [6] [nM] | DC50 [7] [nM] | Dmax [7] [%] | IC50 [8] [nM] | DC50 [9] [nM] | Dmax [9] [%] | DC50 [10] [nM] | Dmax [10] [%] | SMILES
1.65 | 100 | 1.12 | 5.88 | – | – | 2.15 | 2.5 | 6.78 | 99.3 | 4.68 | 0.69 | 99.9 | – | – | [2H]C([2H])([2H])c1ccc(C(=O)N2CCC3(CCC(CN4CCN(CC5(COc6nc(N7CCC[C@@](C)(O)C7)c7cnc(-c8cc(O)cc9ccc(F)c(C#C)c89)c(F)c7n6)CC5)CC4)CC3)CC2)cc1N1CCC(=O)NC1=O [Example 111, (R)-1-(5-(9-((4-((1-(((7-(8-ethynyl-7-fluoro-3-hydroxynaphthalen-1-yl)-8-fluoro-4-(3-hydroxy-3-methylpiperidin-1-yl)pyrido[4,3-d]pyrimidin-2-yl)oxy)methyl)cyclopropyl)methyl)piperazin-1-yl)methyl)-3-azaspiro[5.5]undecane-3-carbonyl)-2-(methyl-d3)phenyl)dihydropyrimidine-2,4(1H,3H)-dione]
2.42 | 100 | 0.43 | 7.7 | 1.37 | 100 | 4.31 | 6.2 | 5.6 | 100 | 9.75 | – | – | 25.2 | 95.3 | [2H]C([2H])([2H])c1ccc(C(=O)N2CCC3(CCC(CN4CCN(C[C@@H](C)COc5nc(N6CCC[C@@](C)(O)C6)c6cnc(-c7cc(O)cc8ccc(F)c(C#C)c78)c(F)c6n5)CC4)CC3)CC2)cc1N1CCC(=O)NC1=O [Example 132, 1-(5-(9-((4-((R)-3-((7-(8-ethynyl-7-fluoro-3-hydroxynaphthalen-1-yl)-8-fluoro-4-((R)-3-hydroxy-3-methylpiperidin-1-yl)pyrido[4,3-d]pyrimidin-2-yl)oxy)-2-methylpropyl)piperazin-1-yl)methyl)-3-azaspiro[5.5]undecane-3-carbonyl)-2-(methyl-d3)phenyl)dihydropyrimidine-2,4(1H,3H)-dione]
